The results in this text go back to US9550796B2, “Pyrrolopyrrolone derivatives and their use as BET inhibitors” (NOVARTIS AG, priority 2013, dated 2017).

The subject of one assay is THP-1. Kind of assay: Cell growth inhibition assay (CellTiter-Glo), THP-1. The following applies: THP-1 cells, 4 days; for GI50: Homo sapiens, 96 h, half-maximal growth inhibition; for THP-1 TGI: total growth inhibition. Type of assay: cell-based, human. An outline of the steps:
(§1)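 ATP content was quantified with CellTiter-Glo after 4-day compound treatment (top 10 μM, 3-fold steps) at 37 °C. Readings were background- and day-0-corrected, scaled so vehicle equals 100% and medium equals −100%. Four-parameter fits gave half-maximal (IC50) and total growth inhibition concentrations.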

A further assay has as its target BRD3 (Homo sapiens (Human), UniProt Q15059). Briefly: TR-FRET in-vitro binding assay for BRD3. The following applies: 45 nM His-Brd3(20-477), acetyl-histone H4 (AcK 5, 8, 12, 16) peptide. The essentials: (§2)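 Binding is detected by TR-FRET following incubation for 35 minutes at 30° C.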
(TR-FRET usually uses a lanthanide donor and a delayed reading to cut background.)

Another assay has as its target BRD2 (Homo sapiens (Human), UniProt P25440). Briefly: TR-FRET in-vitro binding assay for BRD2. The following applies: 45 nM His-Brd2(60-472), acetyl-histone H4 (AcK 5, 8, 12, 16) peptide. The essentials: as §2
In another assay the test system is K-562. Briefly: Cell growth inhibition assay (CellTiter-Glo), K-562. The following applies: K-562 cells, 4 days; for GI50: Homo sapiens, K562, 96 h, half-maximal growth inhibition; for K-562 TGI: total growth inhibition. Type of assay: cell-based, human. The essentials:
as §1
Background: ATP-based viability assays read luminescence as a measure of living cells.

A further assay concerns MV-4-11. Briefly: Cell growth inhibition assay (CellTiter-Glo), MV-4-11. The note with it: MV-4-11 cells, 4 days; for GI50: Homo sapiens, MV4-11, 96 h, half-maximal growth inhibition; for MV-4-11 TGI: total growth inhibition. Type of assay: cell-based, human. An outline of the steps: as §1
A further assay deals with CREBBP (Homo sapiens (Human), UniProt Q92793). Kind of assay: AlphaScreen in-vitro binding assay for CREBBP. The following applies: 324 nM His-CREBBP (1081-1197), acetyl-histone H4 (AcK 5, 8, 12) peptide. The essentials: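 IC50 values were derived by non-linear regression of percent inhibition across 8 compound concentrations. Protein was His-tagged CREBBP bromodomain (1081-1197), peptide acetyl-histone H4 (AcK 5, 8, 12), in HEPES pH 7.5 buffer. Read-out was AlphaScreen with Ni-chelate acceptor and streptavidin donor beads, 35 min at 30° C then 60 min at RT.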
Sequence of CREBBP (Q92793 1081-1197): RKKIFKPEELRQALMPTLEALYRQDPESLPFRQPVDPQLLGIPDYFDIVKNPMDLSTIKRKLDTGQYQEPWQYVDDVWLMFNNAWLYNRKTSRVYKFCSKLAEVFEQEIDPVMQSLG

The target in another assay is BRD4 (Homo sapiens (Human), UniProt O60885). Briefly: TR-FRET in-vitro binding assay for BRD4. The following applies: 45 nM His-Brd4(44-477), acetyl-histone H4 (AcK 5, 8, 12, 16) peptide. The essentials: as §2

Where only a bound is given, the exact number is not on record here.

Sequence of BRD3 (Q15059 20-477): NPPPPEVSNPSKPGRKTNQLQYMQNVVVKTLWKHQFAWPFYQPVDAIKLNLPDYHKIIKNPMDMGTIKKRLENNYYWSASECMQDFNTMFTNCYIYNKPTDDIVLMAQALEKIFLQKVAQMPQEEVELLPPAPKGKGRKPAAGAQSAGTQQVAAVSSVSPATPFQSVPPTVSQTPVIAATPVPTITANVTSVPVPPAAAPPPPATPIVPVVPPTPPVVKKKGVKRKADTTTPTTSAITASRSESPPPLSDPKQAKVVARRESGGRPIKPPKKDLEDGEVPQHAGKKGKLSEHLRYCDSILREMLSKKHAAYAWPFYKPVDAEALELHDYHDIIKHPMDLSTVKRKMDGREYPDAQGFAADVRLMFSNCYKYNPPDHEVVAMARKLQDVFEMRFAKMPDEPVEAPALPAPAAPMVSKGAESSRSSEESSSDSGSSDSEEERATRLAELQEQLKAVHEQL
Sequence of BRD2 (P25440 60-472): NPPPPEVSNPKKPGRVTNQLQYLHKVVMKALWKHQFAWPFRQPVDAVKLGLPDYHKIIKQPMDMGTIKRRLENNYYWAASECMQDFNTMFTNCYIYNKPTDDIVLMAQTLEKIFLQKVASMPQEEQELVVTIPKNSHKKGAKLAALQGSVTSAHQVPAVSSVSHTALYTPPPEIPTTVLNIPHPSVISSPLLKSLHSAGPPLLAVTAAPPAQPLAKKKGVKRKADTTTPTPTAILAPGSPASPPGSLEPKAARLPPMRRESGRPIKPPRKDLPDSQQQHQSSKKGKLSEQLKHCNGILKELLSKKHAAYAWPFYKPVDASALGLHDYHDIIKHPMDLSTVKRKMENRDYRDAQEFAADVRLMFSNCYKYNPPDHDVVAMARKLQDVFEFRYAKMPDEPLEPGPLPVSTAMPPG

One may read the GI50 as the concentration that inhibits growth by half. As usually defined, the IC50 is the concentration needed to halve the response being measured. The low end stands for inhibition by little substance, the high end for a need for much substance. Regarding `Cc1cc(N2C(=O)c3cc(-c4ccc(=O)n(C)c4)n(C4CC4)c3C2c2ccc(Cl)cc2)cn(C)c1=O` (centres unmarked) [Example 67, 6-(4-chlorophenyl)-1-cyclopropyl-5-(1,5-dimethyl-6-oxo-1,6-dihydropyridin-3-yl)-2-(1-methyl-6-oxo-1,6-dihydropyridin-3-yl)-5,6-dihydropyrrolo[3,4-b]pyrrol-4(1H)-one], the GI50 in the assay with THP-1 stood at 143 nM; with K-562, 404 nM; in the assay on MV-4-11, 66.7 nM. Moreover, the “THP-1 TGI” value with THP-1 came to 353 nM. Further, the half-maximal inhibitory concentration (IC50) at BRD3 worked out at 85 nM; on BRD2, 42 nM; on CREBBP, 300 nM; at BRD4, 88 nM. Moreover, in the assay on K-562, the “K-562 TGI” value is >10000 nM. Moreover, in the assay with MV-4-11, the “MV-4-11 TGI” value came to 118 nM.

Take `COCn1cc(C)c2c1C(c1ccc(Cl)cc1)N(c1cc(C)c3nnn(C)c3n1)C2=O` (centres unmarked) [Example 2, 6-(4-chlorophenyl)-5-(3,7-dimethyl-3H-[1,2,3]triazolo[4,5-b]pyridin-5-yl)-1-(methoxymethyl)-3-methyl-5,6-dihydropyrrolo[3,4-b]pyrrol-4(1H)-one]: the GI50 in the assay on THP-1 came out at 15.1 nM; with K-562, 62.1 nM; with MV-4-11, 7.66 nM. Also, the “THP-1 TGI” value with THP-1 came out at 34.7 nM. In addition, the IC50 at BRD3 was 16 nM; at BRD2, 23 nM; at CREBBP, > 37000 nM; at BRD4, 12 nM. Moreover, the “K-562 TGI” value in the assay on K-562 is >10000 nM. Besides, the “MV-4-11 TGI” value in the assay with MV-4-11 was 19.7 nM.

On to `Cc1cc(N2C(=O)c3c(C4CC4)cn(C4COC4)c3C2c2ccc(Cl)cc2)nc2c1nnn2C` (centres unmarked) [Example 104, 6-(4-chlorophenyl)-3-cyclopropyl-5-(3,7-dimethyl-3H-[1,2,3]triazolo[4,5-b]pyridin-5-yl)-1-(oxetan-3-yl)-5,6-dihydropyrrolo[3,4-b]pyrrol-4(1H)-one], for which the 50% growth inhibitory concentration (GI50) was determined as 6.31 nM in the assay on THP-1, 36.5 nM in the assay with K-562 and 2.98 nM in the assay with MV-4-11. The “THP-1 TGI” value in the assay on THP-1 is 18.4 nM. Further, the IC50 on BRD3 is 21 nM; at BRD2, 35 nM; at CREBBP it was 14800 nM; at BRD4, 21 nM. The “K-562 TGI” value with K-562 is >10000 nM. For the same compound, the “MV-4-11 TGI” value in the assay on MV-4-11 was 11 nM.

In the case of `Cc1cc(N2C(=O)c3c(C(N)=O)cn(C)c3C2c2ccc(Cl)cc2)cn2c(C)nnc12` (centres unmarked) [Example 101, 6-(4-chlorophenyl)-5-(3,8-dimethyl-[1,2,4]triazolo[4,3-a]pyridin-6-yl)-1-methyl-4-oxo-1,4,5,6-tetrahydropyrrolo[3,4-b]pyrrole-3-carboxamide], the GI50 was 150 nM in the assay on THP-1, 1300 nM in the assay with K-562 and 57.4 nM in the assay on MV-4-11. For the same compound, in the assay on THP-1, the “THP-1 TGI” value came out at 450.5 nM. In addition, the half-inhibitory concentration (IC50) at BRD3 was 42 nM; on BRD2 it was 54 nM; on CREBBP it was 30600 nM; on BRD4, 41 nM. Further, in the assay on K-562, the “K-562 TGI” value was >10000 nM. Further, the “MV-4-11 TGI” value in the assay with MV-4-11 came out at 160.5 nM.

On to `Cc1cc(N2C(=O)c3cc(-c4ccc(=O)n(C)c4)n(C)c3C2c2ccc(Cl)cc2)cn(C)c1=O` (centres unmarked) [Example 46, 6-(4-chlorophenyl)-5-(1,5-dimethyl-6-oxo-1,6-dihydropyridin-3-yl)-1-methyl-2-(1-methyl-6-oxo-1,6-dihydropyridin-3-yl)-5,6-dihydropyrrolo[3,4-b]pyrrol-4(1H)-one], for which the figures for the concentration for 50% growth inhibition (GI50) in the assay with THP-1, in the assay on K-562 and with MV-4-11 were 525 nM, 1600 nM and 165 nM, respectively. Also, the “THP-1 TGI” value with THP-1 came out at 1070 nM. The IC50 at BRD3 stood at 16 nM; on BRD2, 19 nM; on CREBBP, 280 nM; at BRD4, 14 nM. Further, the “K-562 TGI” value in the assay on K-562 was >10000 nM. Also, in the assay on MV-4-11, the “MV-4-11 TGI” value was found to be 292 nM.

In the case of `Cc1cc(N2C(=O)c3c(C4CC4)cn(C)c3C2c2ccc(Cl)cc2)cn(C)c1=O` (centres unmarked) [Example 37, 6-(4-chlorophenyl)-3-cyclopropyl-5-(1,5-dimethyl-6-oxo-1,6-dihydropyridin-3-yl)-1-methyl-5,6-dihydropyrrolo[3,4-b]pyrrol-4(1H)-one], the figures for the 50% growth inhibitory concentration (GI50) in the assay on THP-1, in the assay with K-562 and with MV-4-11 were 44.9 nM, 180 nM and 21.3 nM, respectively. In addition, the “THP-1 TGI” value with THP-1 stood at 98.15 nM. For the same compound, the IC50 on BRD3 was 32 nM; at BRD2, 38 nM; at CREBBP it was 1900 nM; at BRD4, 37 nM. The “K-562 TGI” value in the assay on K-562 was >10000 nM. Further, the “MV-4-11 TGI” value in the assay with MV-4-11 came to 38.55 nM.

For `Cc1cn(C2CN(C)C2)c2c1C(=O)N(c1cc(C)c3nnn(C)c3n1)C2c1ccc(Cl)cc1` (centres unmarked) [Example 20, 6-(4-chlorophenyl)-5-(3,7-dimethyl-3H-[1,2,3]triazolo[4,5-b]pyridin-5-yl)-3-methyl-1-(1-methylazetidin-3-yl)-5,6-dihydropyrrolo[3,4-b]pyrrol-4(1H)-one], the GI50 amounted to 12.9 nM with THP-1, 63.4 nM with K-562 and 7.89 nM in the assay with MV-4-11. In addition, the “THP-1 TGI” value with THP-1 turned out to be 38 nM. Besides, the IC50 at BRD3 is 20 nM; on BRD2, 23 nM; on CREBBP, > 37000 nM; on BRD4, 16 nM. For the same compound, the “K-562 TGI” value with K-562 is >10000 nM. Also, in the assay with MV-4-11, the “MV-4-11 TGI” value is 21.25 nM.

For `Cc1cc(N2C(=O)c3c(C(=O)N(C)C)cn(C)c3C2c2ccc(Cl)cc2)cn2c(C)nnc12` (centres unmarked) [Example 100, 6-(4-chlorophenyl)-5-(3,8-dimethyl-[1,2,4]triazolo[4,3-a]pyridin-6-yl)-N,N,1-trimethyl-4-oxo-1,4,5,6-tetrahydropyrrolo[3,4-b]pyrrole-3-carboxamide], the 50% growth inhibitory concentration (GI50) in the assay with THP-1 turned out to be 518 nM; with K-562 it was 2040 nM; in the assay with MV-4-11, 128 nM. The “THP-1 TGI” value in the assay on THP-1 turned out to be 2135 nM. Further, the half-inhibitory concentration (IC50) is 47 nM at BRD3, 40 nM at BRD2, > 37000 nM at CREBBP and 30 nM on BRD4. Further, the “K-562 TGI” value in the assay on K-562 is >10000 nM. Moreover, the “MV-4-11 TGI” value with MV-4-11 was determined as 368.5 nM.

On to `Cc1cc(N2C(=O)c3cc(-c4cccnc4O)[nH]c3C2c2ccc(Cl)cc2)cn2c(C)nnc12` (centres unmarked) [Example 26, 6-(4-chlorophenyl)-5-(3,8-dimethyl-[1,2,4]triazolo[4,3-a]pyridin-6-yl)-2-(2-hydroxypyridin-3-yl)-5,6-dihydropyrrolo[3,4-b]pyrrol-4(1H)-one], for which the concentration for 50% growth inhibition (GI50) in the assay on THP-1 worked out at 136 nM; in the assay on K-562, 839 nM; in the assay on MV-4-11 it was 70 nM. Further, the “THP-1 TGI” value with THP-1 amounted to 340 nM. Also, the concentration for half-maximal inhibition (IC50) at BRD3 is 52 nM; at BRD2 it was 78 nM; at CREBBP, 4000 nM; at BRD4, 60 nM. In the assay with K-562, the “K-562 TGI” value is >10000 nM. For the same compound, the “MV-4-11 TGI” value with MV-4-11 worked out at 118.5 nM.

As to `Cc1cn(C2CN(C)C2)c2c1C(=O)N(c1cc(C)c3nnc(C)n3c1)C2c1ccc(Cl)cc1` (centres unmarked) [Example 5, 6-(4-chlorophenyl)-5-(3,8-dimethyl-[1,2,4]triazolo[4,3-a]pyridin-6-yl)-3-methyl-1-(1-methylazetidin-3-yl)-5,6-dihydropyrrolo[3,4-b]pyrrol-4(1H)-one], the concentration for 50% growth inhibition (GI50) is 12.1 nM in the assay with THP-1, 47.8 nM in the assay with K-562 and 6.3 nM in the assay with MV-4-11. Moreover, the “THP-1 TGI” value in the assay on THP-1 stood at 36.2 nM. For the same compound, the IC50 on BRD3 is 25 nM; at BRD2 it was 45 nM; at CREBBP, 6300 nM; on BRD4 it was 24 nM. For the same compound, the “K-562 TGI” value in the assay on K-562 was >10000 nM. Besides, the “MV-4-11 TGI” value in the assay on MV-4-11 came to 13.05 nM.

In the case of `Cc1cn(C)c2c1C(=O)N(c1cc(C)c3nnn(C)c3n1)C2c1ccc(Cl)cc1` (centres unmarked) [Example 32, 6-(4-chlorophenyl)-5-(3,7-dimethyl-3H-[1,2,3]triazolo[4,5-b]pyridin-5-yl)-1,3-dimethyl-5,6-dihydropyrrolo[3,4-b]pyrrol-4(1H)-one], the GI50 with THP-1 was 174 nM; with K-562 it was 430 nM; in the assay with MV-4-11, 111 nM. Besides, the “THP-1 TGI” value in the assay on THP-1 was 343 nM. Also, the half-maximal inhibitory concentration (IC50) was 100 nM at BRD3, 160 nM on BRD2, > 37000 nM at CREBBP and 110 nM on BRD4. The “K-562 TGI” value with K-562 was >10000 nM. In the assay with MV-4-11, the “MV-4-11 TGI” value is 203.5 nM.
